Laboratory results as given in patent publication US7795312B2, “Method for treating abdominal discomfort” (Sucampo AG, priority 2002, dated 2010).

Columns and labels:
Format in all cases: in vivo, human
[1] = system: patients with irritable bowel syndrome (IBS) exhibiting dyschezia; test: Spontaneous bowel movement frequency in patients with IBS exhibiting dyschezia; conditions: for Spontaneous Bowel Movement Frequency Rates, Mean ± SD: IBS patients exhibiting dyschezia
Protocol: Each group underwent two weeks washout period and then began to administer oral test substance (capsules) or placebo (capsules) daily for 4 weeks. Test substance or placebo was taken two times a day (b.i.d) at breakfast with food and at least 8 ounces of water and at dinner with food and at least 8 ounces of water. After 3 consecutive days of not having spontaneous bowel movement, the investigator could prescribe to the patient 10 mg bisacodyl suppository as a rescue medication. If this was not effective, Fleet® enema could be used. During the study period, each patient documented bowel activity. A spontaneous bowel movement was defined as any bowel movement except for that occurred within 24 hours after the rescue medication. Frequency of spontaneous bowel movements at Baseline, Weeks 1, 2, 3 and 4 were analyzed.

[2] = system: patients with irritable bowel syndrome (IBS); test: Abdominal discomfort score in patients with irritable bowel syndrome; conditions: for Abdominal discomfort score, Mean ± SD: IBS patients
Protocol: (§1) Patients with irritable bowel syndrome (IBS) were randomly allocated to the following two treatment groups. • Group 1: Test substance (13,14-dihydro-15-keto-16,16-difluoro-PGE1) 48 μg total (24 μg/breakfast+24 μg/dinner) • Group 2: Matching placebo (placebo/breakfast+placebo/dinner)
(§2) Each group underwent two weeks washout period and then began to administer oral test substance (capsules) or placebo (capsules) daily for 4 weeks. Test substance or placebo was taken two times a day (b.i.d) at breakfast with food and at least 8 ounces of water and at dinner with food and at least 8 ounces of water. Patients were asked to evaluate abdominal discomfort upon waking in the morning, using a 5-point scale (Score: 0=absent, 1=mild, 2=moderate, 3=severe, 4=very severe) at 4 weeks after the initiation of the treatments.

[3] = system: patients with occasional constipation; test: Abdominal discomfort score in patients with occasional constipation; conditions: for Abdominal discomfort score, Mean ± SD: patients with constipation, oral capsules 48 μg total daily (24 μg b.i.d.), 5-point scale 0-4, p < 0.05 vs placebo
Protocol: Patients with occasional constipation were randomly allocated to the following two treatment groups. • Group 1: Test substance (13,14-dihydro-15-keto-16,16-difluoro-PGE1) 48 μg total (24 μg/breakfast+24 μg/dinner) • Group 2: Matching placebo (placebo/breakfast+placebo/dinner) Each group underwent two weeks washout period and then began to administer oral test substance (capsules) or placebo (capsules) daily for 4 weeks. During the washout period, the patient's bowel habit was documented to confirm the existence of constipation. Constipation is defined as, on average, less than three spontaneous bowel movements per week. All existing laxative medication was withdrawn at the start of the washout period and the patients were instructed not to change their diet or lifestyle during the study.
Test substance or placebo was taken orally for a total treatment period of 4 weeks; it was taken two times a day (b.i.d) at breakfast with food and at least 8 ounces of water and at dinner with food and at least 8 ounces of water. […]

[4] = system: patients with irritable bowel syndrome (IBS); test: Abdominal bloating score in patients with irritable bowel syndrome; conditions: for Abdominal bloating score, Mean ± SD: IBS patients
Protocol: as §1
as §2, with “The patients” for “Patients”, “bloating” for “discomfort”

[5] = oral 48 μg total daily for 4 weeks
[6] = Baseline, 5-point scale 0=absent to 4=very severe
[7] = Week 4, oral capsules 48 μg total daily (24 μg b.i.d.), 5-point scale 0-4, p < 0.01 vs placebo

For `CCCCC(F)(F)C(=O)CCC1C(O)CC(=O)C1CCCCCCC(=O)O` (stereo not shown) [Test Substance, 13,14-dihydro-15-keto-16,16-difluoro-PGE1], the “Spontaneous Bowel Movement Frequency Rates, Mean ± SD” value ([1]; Baseline) was 1.43 ± 0.773 (32), the “Spontaneous Bowel Movement Frequency Rates, Mean ± SD” value ([1]; Week 1, oral capsules 48 μg total daily (24 μg b.i.d.), p < 0.01 vs placebo) was 6.50 ± 4.108 (32) and the “Spontaneous Bowel Movement Frequency Rates, Mean ± SD” value ([1]; Week 2, oral capsules 48 μg total daily (24 μg b.i.d.), p < 0.01 vs placebo) was 5.58 ± 4.003 (32). For the same compound, the “Spontaneous Bowel Movement Frequency Rates, Mean ± SD” value ([1]; Week 3, oral capsules 48 μg total daily (24 μg b.i.d.), p < 0.01 vs placebo) was 5.93 ± 4.775 (32), the “Spontaneous Bowel Movement Frequency Rates, Mean ± SD” value ([1]; Week 4, oral capsules 48 μg total daily (24 μg b.i.d.), p < 0.05 vs placebo) was 5.17 ± 4.333 (32) and the “Effect on spontaneous bowel movement frequency in patients with IBS exhibiting dyschezia” value [1, 5] was “significantly improved the spontaneous bowel movement frequency”. For the same compound, the “Abdominal discomfort score, Mean ± SD” value [2, 6] was 2.25 ± 0.803, the “Abdominal discomfort score, Mean ± SD” value [2, 7] was 1.48 ± 1.029 and the “Effect on abdominal discomfort in patients with IBS” value [2, 5] was “significantly improved the abdominal discomfort”. The “Abdominal discomfort score, Mean ± SD” value ([3]; Week 2) was 1.09 ± 1.047 (116), the “Abdominal discomfort score, Mean ± SD” value ([3]; Week 3) was 1.27 ± 1.057 (117) and the “Abdominal discomfort score, Mean ± SD” value ([3]; Week 4) was 1.22 ± 1.060 (117). For the same compound, the “Effect on abdominal discomfort in patients with constipation” value [3, 5] was “significantly improved the abdominal discomfort”, the “Abdominal bloating score, Mean ± SD” value [4, 6] was 2.50 ± 0.916 (32) and the “Abdominal bloating score, Mean ± SD” value [4, 7] was 1.74 ± 0.999 (31). The “Effect on abdominal bloating in patients with IBS” value [4, 5] was “significantly improved the abdominal bloating”.
